Test results published in ChEMBL document CHEMBL1141332, “Cytotoxic metabolites from an Indonesian sponge Lendenfeldia sp” (J Nat Prod, 2007).

Assays:
Format in all cases: functional
[1] = tested on: HL-60; test: Cytotoxicity against human HL60 cells; conditions: Homo sapiens, HL-60
[2] = tested on: K562; test: Cytotoxicity against human K562 cells
[3] = tested on: MOLT-4; test: Cytotoxicity against human MOLT4 cells
[4] = tested on: RPMI-8226; test: Cytotoxicity against human RPMI8226 cells
[5] = tested on: A549; test: Cytotoxicity against human A549 cells
[6] = tested on: HOP-62; test: Cytotoxicity against human HOP62 cells
[7] = tested on: HOP-92; test: Cytotoxicity against human HOP92 cells
[8] = tested on: NCI-H226; test: Cytotoxicity against human NCI-H226 cells
[9] = tested on: NCI-H23; test: Cytotoxicity against human NCI-H23 cells
[10] = tested on: NCI-H322M; test: Cytotoxicity against human NCI-H322M cells
[11] = tested on: NCI-H460; test: Cytotoxicity against human NCI-H460 cells
[12] = tested on: NCI-H522; test: Cytotoxicity against human NCI-H522 cells
[13] = tested on: LOX IMVI; test: Cytotoxicity against human LOX IMVI cells
[14] = tested on: COLO 205; test: Cytotoxicity against human COLO205 cells
[15] = tested on: HCC 2998; test: Cytotoxicity against human HCC2998 cells
[16] = tested on: HCT-116; test: Cytotoxicity against human HCT116 cells
[17] = tested on: HCT-15; test: Cytotoxicity against human HCT15 cells
[18] = tested on: HT-29; test: Cytotoxicity against human HT29 cells
[19] = tested on: KM12; test: Cytotoxicity against human KM12 cells
[20] = tested on: SF-268; test: Cytotoxicity against human SF268 cells
[21] = tested on: SF-539; test: Cytotoxicity against human SF539 cells
[22] = tested on: SNB-19; test: Cytotoxicity against human SNB19 cells; conditions: read-out: Log LC50 (the source's name) (converted)
[23] = tested on: SNB-75; test: Cytotoxicity against human SNB75 cells
[24] = tested on: U-251; test: Cytotoxicity against human U251cells
[25] = tested on: SK-MEL-28; test: Cytotoxicity against human SK-MEL-28 cells
[26] = tested on: UACC-257; test: Cytotoxicity against human UACC257 cells
[27] = tested on: UACC-62; test: Cytotoxicity against human UACC62 cells
[28] = tested on: IGROV-1; test: Cytotoxicity against human IGROV1 cells
[29] = tested on: OVCAR-3; test: Cytotoxicity against human OVCAR-3 cells
[30] = tested on: OVCAR-4; test: Cytotoxicity against human OVCAR4 cells
[31] = tested on: OVCAR-5; test: Cytotoxicity against human OVCAR5 cells
[32] = tested on: OVCAR-8; test: Cytotoxicity against human OVCAR8 cells
[33] = tested on: SK-OV-3; test: Cytotoxicity against human SK-OV-3 cells
[34] = tested on: 786-0; test: Cytotoxicity against human 786-0 cells
[35] = tested on: SN12C; test: Cytotoxicity against human SN12C cells
[36] = tested on: TK-10; test: Cytotoxicity against human TK10 cells
[37] = tested on: PC-3; test: Cytotoxicity against human PC3 cells
[38] = tested on: DU-145; test: Cytotoxicity against human DU145 cells
[39] = tested on: MCF7; test: Cytotoxicity against human MCF7 cells
[40] = tested on: NCI/ADR-RES; test: Cytotoxicity against human NCI/ADR-RES cells
[41] = tested on: MDA-MB-231; test: Cytotoxicity against human MDA-MB-231 cells
[42] = Cytotoxicity against human HS578T cells; conditions: Hs-578T
[43] = tested on: MDA-MB-435; test: Cytotoxicity against human MDA-MB-435 cells
[44] = tested on: BT-549; test: Cytotoxicity against human BT549 cells
[45] = tested on: T47D; test: Cytotoxicity against human T47D cells
[46] = read-out: Log LC50 (the source's name) (converted)

CC(=O)O[C@@H]1C[C@H]2[C@]3(C)CC[C@H]4C(C)(C)CCC[C@]4(C)[C@H]3C[C@H](O)[C@]2(C)[C@@H](C=O)[C@@H]1C(C)=O [SCALARHERBACIN A]
GI50 [1]: 1320 nM
CC50 [1, 46]: 8510 nM
TGI ([1]; read-out: Log TGI (converted)): 3390 nM
GI50 [2]: 1740 nM
CC50 [2, 46]: 7760 nM
TGI ([2]; read-out: Log TGI (converted)): 3720 nM
GI50 [3]: 324 nM
CC50 [3, 46]: 4170 nM
TGI ([3]; read-out: Log TGI (converted)): 1120 nM
GI50 [4]: 407 nM
CC50 [4, 46]: 13200 nM
TGI ([4]; read-out: Log TGI (converted)): 2090 nM
GI50 [5]: 1230 nM
CC50 [5, 46]: 6610 nM
TGI ([5]; read-out: Log TGI (converted)): 2820 nM
GI50 [6]: 1070 nM
CC50 [6, 46]: 4790 nM
TGI ([6]; read-out: Log TGI (converted)): 2240 nM
GI50 [7]: 1320 nM
CC50 [7, 46]: 5500 nM
TGI ([7]; read-out: Log TGI (converted)): 2690 nM
GI50 [8]: 1580 nM
CC50 [8, 46]: 6760 nM
TGI ([8]; read-out: Log TGI (converted)): 3240 nM
GI50 [9]: 1660 nM
CC50 [9, 46]: 6170 nM
TGI ([9]; read-out: Log TGI (converted)): 3240 nM
GI50 [10]: 2140 nM
CC50 [10, 46]: 8710 nM
TGI ([10]; read-out: Log TGI (converted)): 4270 nM
GI50 [11]: 1450 nM
CC50 [11, 46]: 6760 nM
TGI ([11]; read-out: Log TGI (converted)): 3160 nM
GI50 [12]: 1860 nM
CC50 [12, 46]: 7590 nM
TGI ([12]; read-out: Log TGI (converted)): 3720 nM
GI50 [13]: 1000 nM
CC50 [13, 46]: 4680 nM
TGI ([13]; read-out: Log TGI (converted)): 2140 nM
GI50 [14]: 537 nM
CC50 [14, 46]: 5250 nM
TGI ([14]; read-out: Log TGI (converted)): 1860 nM
GI50 [15]: 1510 nM
CC50 [15, 46]: 5620 nM
TGI ([15]; read-out: Log TGI (converted)): 2950 nM
GI50 [16]: 407 nM
CC50 [16, 46]: 3720 nM
TGI ([16]; read-out: Log TGI (converted)): 1380 nM
GI50 [17]: 759 nM
CC50 [17, 46]: 4790 nM
TGI ([17]; read-out: Log TGI (converted)): 2040 nM
GI50 [18]: 309 nM
CC50 [18, 46]: 3800 nM
TGI ([18]; read-out: Log TGI (converted)): 1100 nM
GI50 [19]: 1480 nM
CC50 [19, 46]: 8510 nM
TGI ([19]; read-out: Log TGI (converted)): 3550 nM
GI50 [20]: 1450 nM
CC50 [20, 46]: 7410 nM
TGI ([20]; read-out: Log TGI (converted)): 3240 nM
GI50 [21]: 417 nM
TGI ([21]; read-out: Log TGI (converted)): 1580 nM
CC50 [22]: 1660 nM
GI50 [23]: 1580 nM
CC50 [23, 46]: 5500 nM
TGI ([23]; read-out: Log TGI (converted)): 2950 nM
GI50 [24]: 589 nM
CC50 [24, 46]: 4270 nM
TGI ([24]; read-out: Log TGI (converted)): 1780 nM
GI50 [25]: 389 nM
TGI ([25]; read-out: Log TGI (converted)): 1290 nM
GI50 [26]: 2190 nM
CC50 [26, 46]: 27500 nM
TGI ([26]; read-out: Log TGI (converted)): 5250 nM
GI50 [27]: 1580 nM
CC50 [27, 46]: 5500 nM
TGI ([27]; read-out: Log TGI (converted)): 2950 nM
GI50 [28]: 1950 nM
CC50 [28, 46]: 8320 nM
TGI ([28]; read-out: Log TGI (converted)): 4070 nM
GI50 [29]: 1120 nM
CC50 [29, 46]: 5500 nM
TGI ([29]; read-out: Log TGI (converted)): 2510 nM
GI50 [30]: 912 nM
CC50 [30, 46]: 6610 nM
TGI ([30]; read-out: Log TGI (converted)): 2510 nM
GI50 [31]: 1320 nM
CC50 [31, 46]: 5130 nM
TGI ([31]; read-out: Log TGI (converted)): 2630 nM
GI50 [32]: 676 nM
CC50 [32, 46]: 57500 nM
TGI ([32]; read-out: Log TGI (converted)): 3890 nM
GI50 [33]: 2000 nM
CC50 [33, 46]: 8130 nM
TGI ([33]; read-out: Log TGI (converted)): 3980 nM
GI50 [34]: 479 nM
CC50 [34, 46]: 4070 nM
TGI ([34]; read-out: Log TGI (converted)): 1620 nM
GI50 [35]: 1350 nM
TGI ([35]; read-out: Log TGI (converted)): 2750 nM
GI50 [36]: 1380 nM
LC50 [36]: 6610 nM
TGI ([36]; read-out: Log TGI (converted)): 3020 nM
GI50 [37]: 741 nM
LC50 [37]: 5250 nM
TGI ([37]; read-out: Log TGI (converted)): 2140 nM
GI50 [38]: 1230 nM
LC50 [38]: 5130 nM
TGI ([38]; read-out: Log TGI (converted)): 2510 nM
GI50 [39]: 1820 nM
LC50 [39]: 70800 nM
TGI ([39]; read-out: Log TGI (converted)): 6170 nM
GI50 [40]: 1660 nM
LC50 [40]: 7080 nM
TGI ([40]; read-out: Log TGI (converted)): 3470 nM
GI50 [41]: 1480 nM
TGI ([41]; read-out: Log TGI (converted)): 2880 nM
GI50 [42]: 1020 nM
LC50 [42]: 8910 nM
TGI ([42]; read-out: Log TGI (converted)): 3020 nM
GI50 [43]: 1450 nM
LC50 [43]: 6760 nM
TGI ([43]; read-out: Log TGI (converted)): 3090 nM
GI50 [44]: 562 nM
LC50 [44]: 4370 nM
TGI ([44]; read-out: Log TGI (converted)): 1780 nM
GI50 [45]: 832 nM
LC50 [45]: 25100 nM
TGI ([45]; read-out: Log TGI (converted)): 3550 nM
